Test results reported in US7812022B2 (GlaxoSmithKline LLC, priority 2004, dated 2010).
pIC50: −log10 of the molar value.

Columns and labels:
[1] = system: BT474 and HN5 tumor cell lines; experiment: Celltiter Glo growth inhibition assay (cellular Method B); type: cell-based; details: Homo sapiens, BT-474, 72 h, 3 days, read-out: Activity (Method): growth inhibition IC50 class
Experimental: (§1) Human breast tumor cells (BT474) were cultured in RPMI, (Invitrogen, 22400) containing 10% fetal bovine serum (FBS). Human head and neck tumor cells (HN5) were cultured in low glucose DMEM (Invitrogen, 12320) containing 10% FBS. Human colon tumor cells (Colo205) were cultured in DMEM (Invitrogen, 10564) containing 10% FBS. All cell lines were maintained at 37° C. in a humidified 5% CO2, 95% air incubator. Cells were harvested using trypsin/EDTA, counted using a haemocytometer, and plated in 30 microliters of the appropriate media described above, at the following densities, in a half area, black-walled, 96-well tissue culture plate (Corning 3882): BT474 3,000 cells/well, HN5 500 cells/well and Colo205 cells, 3,000 cells/well. The next day, compounds were diluted in DMEM containing […] gentamicin, from 10 mM stock solutions in DMSO. 30 microliters/well of these dilutions were added to the 30 microliters/well of media currently on the cell plates. Medium containing 0.6% DMSO was added to control wells. The final concentration of DMSO in all wells was 0.3%. Cells were incubated at 37° C., 5% CO2 for 3 days. Cell biomass was estimated using Celltiter Glo (Promega G7571). Briefly, plates were removed from the incubator and allowed to equilibrate to rt for 30 minutes. 60 microliters of Celltiter Glo reagent were added to each well of the treated cells and plates were shaken on an orbital plate shaker for 2 min. Plates were incubated without shaking for 30 more min and read in a luminometer with an integration time of 0.5 seconds per well. Percent inhibition of cell growth was calculated relative to vehicle treated control wells. Concentration of compound that inhibits 50% of vehicle control cell growth (IC50) was interpolated using nonlinear regression (Levenberg-Marquardt) and the equation, y=Vmax*(1−(x/(K+x)))+Y2, where “K” was equal to the IC50.

[2] = system: Colo205 tumor cell lines; experiment: Celltiter Glo growth inhibition assay (cellular Method B), Colo205; type: cell-based; details: Homo sapiens, COLO 205, 72 h, 3 days, read-out: Activity (Method): growth inhibition IC50 class
Experimental: as §1

[3] = target: T1, ErbB2 or EGFR; experiment: ErbB family substrate phosphorylation enzyme assay (HTRF), Method A or Method B; type: biochemical; details: Method B: enzyme mix pre-incubated with compound 1 hour at 20° C., started with substrate mix
T1 construct: enzymes purified from a baculovirus expression system; Reagent production was conducted essentially as described in Brignola, P. S., et al, (2002) J. Biol. Chem. 277(2): 1576-1585
Method in brief: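 Baculovirus-expressed EGFR or ErbB2 (0.8 or 10 nM in enzyme mix) phosphorylates biotinylated Peptide C with 20 µM ATP and 0.8 µM peptide (substrate-mix levels), MnCl2, pH 7.5. Reaction ran 90 min at 20 °C with EDTA stop and HTRF anti-phosphotyrosine read. Method A: enzyme added last; Method B: 1 h enzyme–compound preincubation.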

Row | pIC50 [1] | pIC50 [2] | SMILES | Activity (Method): pIC50 class against ErbB2 or EGFR [3]
1 | > 7.00 | < 6.00 | Cc1ccc(F)c(C(=O)Nc2cccc(-c3nn4ccccc4c3-c3ccnc(Nc4ccc(OCCN(C)C)c(Cl)c4)n3)c2)c1F.O=C(O)C(F)(F)F [Example 186, N-[3-(3-{2-[(3-chloro-4-{[2-(dimethylamino)ethyl]oxy}phenyl)-amino]-4-pyrimidinyl}pyrazolo[1,5-a]pyridin-2-yl)phenyl]-2,6-difluoro-3-methylbenzamide-TFA] | +++ (B) (at least one pIC50 measurement of greater than 7 against either ErbB2 or EGFR)
2 | > 7.00 | 6.00 to 7.00 | CS(=O)(=O)CCNCc1cccc(Nc2nccc(-c3c(-c4cccc(NC(=O)c5cc(F)ccc5F)c4)nn4ccccc34)n2)c1 [Example 187, 2,5-Difluoro-N-{3-[3-(2-{[3-({[2-(methylsulfonyl)ethyl]amino}-methyl)phenyl]amino}-4-pyrimidinyl)pyrazolo[1,5-a]pyridin-2-yl]phenyl}benzamide] | +++ (B) (at least one pIC50 measurement of greater than 7 against either ErbB2 or EGFR)
3 | > 7.00 | < 6.00 | CS(=O)(=O)CCNCc1cccc(Nc2nccc(-c3c(-c4cccc(NC(=O)c5c(F)cccc5F)c4)nn4ccccc34)n2)c1 [Example 188, 2,6-Difluoro-N-{3-[3-(2-{[3-({[2-(methylsulfonyl)ethyl]amino}-methyl)phenyl]amino}-4-pyrimidinyl)pyrazolo[1,5-a]pyridin-2-yl]phenyl}benzamide] | +++ (B) (at least one pIC50 measurement of greater than 7 against either ErbB2 or EGFR)
4 | < 6.00 | < 6.00 | O=C(Nc1cccc(-c2nn3cc(C(F)(F)F)ccc3c2-c2ccnc(Nc3cccc(F)c3)n2)c1)c1c(F)cccc1F [Example 191, 2,6-Difluoro-N-{3-[3-{2-[(3-fluorophenyl)amino]-4-pyrimidinyl}-6-(trifluoromethyl)pyrazolo[1,5-a]pyridin-2-yl]phenyl}benzamide] | ++ (B) (at least one pIC50 measurement greater than 6 against either ErbB2 or EGFR but no measurement greater than pIC50 of 7)
5 | < 6.00 | < 6.00 | O=C(Nc1cccc(-c2nn3cc(C(F)(F)F)ccc3c2-c2nc(Nc3cccc(F)c3)ncc2F)c1)c1c(F)cccc1F [Example 193, 2,6-Difluoro-N-{3-[3-{5-fluoro-2-[(3-fluorophenyl)amino]-4-pyrimidinyl}-6-(trifluoromethyl)pyrazolo[1,5-a]pyridin-2-yl]phenyl}benzamide] | + (B) (no pIC50 measurement greater than 6 against either ErbB2 or EGFR)
6 | 6.00 to 7.00 | < 6.00 | CN(C)CCOc1cccc(Nc2nccc(-c3c(-c4cccc(NC(=O)c5c(F)cccc5F)c4)nn4cc(C(F)(F)F)ccc34)n2)c1 [Example 194, N-{3-[3-{2-[(3-{[2-(Dimethylamino)ethyl]oxy}phenyl)amino]-4-pyrimidinyl}-6-(trifluoromethyl)pyrazolo[1,5-a]pyridin-2-yl]phenyl}-2,6-difluorobenzamide] | +++ (B) (at least one pIC50 measurement of greater than 7 against either ErbB2 or EGFR)
7 | 6.00 to 7.00 | < 6.00 | O=C(Nc1cccc(-c2nn3ccccc3c2-c2nc(Nc3cccc(F)c3)ncc2F)c1)c1c(F)cccc1F [Example 202, 2,6-difluoro-N-[3-(3-{5-fluoro-2-[(3-fluorophenyl)amino]-4-pyrimidinyl}pyrazolo[1,5-a]pyridin-2-yl)phenyl]benzamide] | ++ (B) (at least one pIC50 measurement greater than 6 against either ErbB2 or EGFR but no measurement greater than pIC50 of 7)
8 | > 7.00 | 6.00 to 7.00 | CN1CCc2ccc(Nc3ncc(F)c(-c4c(-c5cccc(NC(=O)c6c(F)cccc6F)c5)nn5ccccc45)n3)cc2C1 [Example 203, 2,6-Difluoro-N-[3-(3-{5-fluoro-2-[(2-methyl-1,2,3,4-tetrahydro-7-isoquinolinyl)amino]-4-pyrimidinyl}pyrazolo[1,5-a]pyridin-2-yl)phenyl]benzamide] | +++ (B) (at least one pIC50 measurement of greater than 7 against either ErbB2 or EGFR)
